# Assay results from patent US20090042988A1, “PHARMACEUTICAL COMPOSITIONS CONTAINING A MEGLITINIDE COMPOUND FOR PREVENTING HEPATIC FIBROSIS” (KURUME UNIVERSITY, priority 2006, published 2009).
# Values joined by “and” are separate entries in the source; they are usually repeats but may differ in a detail not shown here. Equal entries are not always repeated. “Also recorded” adds a separate entry of the source.
# Columns and labels:
# [1] = Diabetic indexes (HbA1c, fasting blood glucose, blood glucose 2 hours after glucose tolerance test) in NASH patients with diabetes given nateglinide; type: in vivo; details: per patient, Case 1-5
# Method: In 0th week and 12th week or 16 week, as the diabetic indexes, the fasting blood glucose, the blood glucose 2 hours after the glucose tolerance test, and hemoglobin A1c, as the evaluation of the liver, the degree of fatty liver determined by liver/spleen ratio of CT and liver biopsy tissues for each case were histologically analyzed to score hepatocellular degeneration, pericellular fibrosis, perivenular fibrosis, portal fibrosis or the like (Brunt E M et al. Am J Gastroenterol. 1999 94: 2467-2474).
# fatty liver = test: Degree of fatty liver by liver/spleen ratio of CT in NASH patients with diabetes given nateglinide; type: in vivo
# Excerpt: 5 patients were selected as the subjects, who had clinical features of fatty liver found by the abdominal ultrasound or the abdominal CT, had negative test results in various virus markers and autoantibody, could deny a drinking history or a drug history; were diagnosed as NASH by a liver biopsy based on Brunt's scale (Am J Gastroenterol. 1999 94: 2467-2474), and had diabetes on which diet and exercise therapies could not sufficiently produce the therapeutic effect. […] Am J Gastroenterol. 1999 94: 2467-2474).
# liver biopsy tissues [2] = details: 16 weeks, 5 patients with diabetes diagnosed as NASH (Non-patent Literature 10); cited from earlier work
# ATP-citrate lyase = details: nateglinide administered before glucose load; diabetic model animal; cited from earlier work
# [3] = twelve-week administration; 53 fatty liver cases with diabetes or 5 cases where GPT>GOT; cited from earlier work
# liver biopsy tissues [4] = test: Histological scoring of liver biopsy tissues (Brunt's scale) in NASH patients with diabetes given nateglinide;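 further: patients dosed orally with 90 mg thrice daily ahead of meals over 16 weeks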
# Method: Meanwhile, the degree of hepatic fibrosis herein mentioned is evaluated by the steps comprising of treating the tissue section of liver biopsy samples with the method of specifically staining the fibrillary element such as Masson's trichrome stain, Sweet's reticulin stain or Azan stain; and then determining the quantity thereof per distinctive fibrosis images or evaluating them as stages. As one example, since hepatocellular necrosis or degeneration in NASH often occurs in areas of zone 3, the portal fibrosis is evaluated corresponding to the degree thereof on a scale of 0 to 4 when pericellular fibrosis, perivenular fibrosis or pathology of the region corresponding to the areas of zone 3 is advanced. Further, the degree is comprehensively classified as: Stage 1: perivascular/perisinusoidal/pericellular fibrosis partially or widely exists centering on zone 3; Stage 2: portal fibrosis partially or widely exists in addition to Stage 1; Stage 3: bridging fibrosis partially or widely exists; and Stage 4: cirrhosis.
# Hepatocellular degeneration is determined as ballooning of hepatocytes after treating the section of liver biopsy tissues with hematoxylin-eosin staining. Hepatocellular degeneration is evaluated based on the number of the cells observed in the visual field (Non-patent Literature 11).
# [5] = after nateglinide 90 mg orally three times per day (12th or 16th week)
# [6] = Δ: value before admin. − value after admin., 0th and 12th weeks
# [7] = Δ: value before admin. − value after admin., per patient, Case 1-5
# [8] = after nateglinide administration, Brunt score, per patient, Case 1-5
# [9] = after nateglinide administration, score, per patient, Case 1-5
structure (smiles),measurement,setting,value
"CC(C)[C@H]1CC[C@H](C(=O)N[C@H](Cc2ccccc2)C(=O)O)CC1 [nateglinide, (−)-N-(trans-4-isopropylcyclohexanecarbonyl)-D-phenylalanine]",BG 2 hrs. (blood glucose 2 hours after the glucose tolerance test),[1]; [5],199 mg/dL and 105 mg/dL and 238 mg/dL and 337 mg/dL and 118 mg/dL
same,fasting blood glucose,[1]; [5],106 mg/dL and 119 mg/dL and 115 mg/dL and 163 mg/dL and 100 mg/dL
same,HbA1c,[1]; after nateglinide 90 mg orally three times per day before each meal (12th or 16th week),5.5% and 5.6% and 6.2% and 7.1% and 5%
same,Δ BG 2 hrs. (blood glucose 2 hours after the glucose tolerance test),[1]; [6],17 mg/dL and 89 mg/dL and 30 mg/dL and 88 mg/dL and 48 mg/dL
same,Δ HbA1c,[1]; [6],0.1% (2×) and −0.1% and 0.5% and 0.8%
same,Δ fasting blood glucose,[1]; [6],20 mg/dL and -6 mg/dL and -5 mg/dL and 7 mg/dL and 39 mg/dL
same,CT score liver/spleen ratio,"fatty liver; after nateglinide administration, per patient, Case 1-5",1 and 0.9 and 0.95 and 0.8 and 1.05
same,improvement effect on fatty liver,fatty liver; cases whose diabetic indexes were not improved,an improvement effect on fatty liver was low
same,Δ CT score liver/spleen ratio,fatty liver; [7],−0.09 and −0.335 and −0.06 and −0.2 and −0.25
same,"fatty liver, hepatic inflammation, hepatic degeneration, hepatic fibrosis by liver biopsies before and after administration",liver biopsy tissues [2],"the fatty liver diminished, and hepatic inflammation, hepatic degeneration or hepatic fibrosis was improved"
same,glucose-induced expression of ATP-citrate lyase in the liver,ATP-citrate lyase,inhibits glucose-induced expression of ATP-citrate lyase
same,GOT and GPT (index of hepatic injury),[3],statistically significantly inhibits GOT and GPT
same,grade,liver biopsy tissues [4]; [8],1 (2×) and 2 (2×) and 1.5
same,stage,liver biopsy tissues [4]; [8],2 (2×) and 1 (2×) and 1.5
same,hepatocellular degeneration,liver biopsy tissues [4]; [9],1 (4×) and 2
same,pericellular fibrosis,liver biopsy tissues [4]; [9],1 (4×) and 0
same,perivenular fibrosis,liver biopsy tissues [4]; [9],1 (4×) and 2
same,portal area neutrophil infiltration,liver biopsy tissues [4]; [9],0 (3×) and 1 (2×)
same,portal fibrosis,liver biopsy tissues [4]; [9],2 (2×) and 1 and 1.5 and 0.5
same,portal vein inflammation,liver biopsy tissues [4]; [9],0 (4×) and 1
same,"improvement of fatty liver, hepatocellular degeneration, pericellular fibrosis, perivenular fibrosis or portal fibrosis",liver biopsy tissues [4]; cases whose diabetic indexes were improved by nateglinide,improvements were also observed
same,"improvement of hepatocellular degeneration, pericellular fibrosis, perivenular fibrosis or portal fibrosis",liver biopsy tissues [4]; cases whose diabetic indexes were not improved (Cases 1 and 3),"hepatic inflammation, degeneration or fibrosis thereof was improved; also recorded: almost the same improvements were observed"
same,Δ grade,liver biopsy tissues [4]; [7],1 (3×) and 0.5 and 0
same,Δ hepatocellular degeneration,liver biopsy tissues [4]; [7],1 (3×) and 0 and 2
same,Δ pericellular fibrosis,liver biopsy tissues [4]; [7],2 (2×) and 1 (3×)
same,Δ perivenular fibrosis,liver biopsy tissues [4]; [7],1
same,Δ portal area neutrophil infiltration,liver biopsy tissues [4]; [7],0 (3×) and 1 (2×)
same,Δ portal fibrosis,liver biopsy tissues [4]; [7],1 (2×) and 0.5 (2×) and 0
same,Δ portal vein inflammation,liver biopsy tissues [4]; [7],1 (4×) and 2
same,Δ stage,liver biopsy tissues [4]; [7],1 (2×) and 0 (2×) and 0.5
